Experimental findings from patent publication US10344060B2 (priority 2013, dated 2019) are described below.

For orientation: IC50 means the concentration needed to halve the response being measured.

For one test, the target named is hNav1.7 (Homo sapiens, UniProt Q15858). Nature of the test: cell-based. The following applies: Table 12; PatchXpress, tonic block; read-out: PX hNav1.7 Tonic IC50. The format is cell-based.
In the next test the target is hNav1.4 (Homo sapiens, UniProt P35499). Nature of the test: cell-based. Type of test: cell-based. Particulars: Table 12; for IC50: PatchXpress, tonic block, read-out: PX hNav1.4 Tonic IC50; for Nav1.4/Nav1.7: ratio of PX tonic IC50 values.
Chain of hNav1.4 (P35499 whole entry): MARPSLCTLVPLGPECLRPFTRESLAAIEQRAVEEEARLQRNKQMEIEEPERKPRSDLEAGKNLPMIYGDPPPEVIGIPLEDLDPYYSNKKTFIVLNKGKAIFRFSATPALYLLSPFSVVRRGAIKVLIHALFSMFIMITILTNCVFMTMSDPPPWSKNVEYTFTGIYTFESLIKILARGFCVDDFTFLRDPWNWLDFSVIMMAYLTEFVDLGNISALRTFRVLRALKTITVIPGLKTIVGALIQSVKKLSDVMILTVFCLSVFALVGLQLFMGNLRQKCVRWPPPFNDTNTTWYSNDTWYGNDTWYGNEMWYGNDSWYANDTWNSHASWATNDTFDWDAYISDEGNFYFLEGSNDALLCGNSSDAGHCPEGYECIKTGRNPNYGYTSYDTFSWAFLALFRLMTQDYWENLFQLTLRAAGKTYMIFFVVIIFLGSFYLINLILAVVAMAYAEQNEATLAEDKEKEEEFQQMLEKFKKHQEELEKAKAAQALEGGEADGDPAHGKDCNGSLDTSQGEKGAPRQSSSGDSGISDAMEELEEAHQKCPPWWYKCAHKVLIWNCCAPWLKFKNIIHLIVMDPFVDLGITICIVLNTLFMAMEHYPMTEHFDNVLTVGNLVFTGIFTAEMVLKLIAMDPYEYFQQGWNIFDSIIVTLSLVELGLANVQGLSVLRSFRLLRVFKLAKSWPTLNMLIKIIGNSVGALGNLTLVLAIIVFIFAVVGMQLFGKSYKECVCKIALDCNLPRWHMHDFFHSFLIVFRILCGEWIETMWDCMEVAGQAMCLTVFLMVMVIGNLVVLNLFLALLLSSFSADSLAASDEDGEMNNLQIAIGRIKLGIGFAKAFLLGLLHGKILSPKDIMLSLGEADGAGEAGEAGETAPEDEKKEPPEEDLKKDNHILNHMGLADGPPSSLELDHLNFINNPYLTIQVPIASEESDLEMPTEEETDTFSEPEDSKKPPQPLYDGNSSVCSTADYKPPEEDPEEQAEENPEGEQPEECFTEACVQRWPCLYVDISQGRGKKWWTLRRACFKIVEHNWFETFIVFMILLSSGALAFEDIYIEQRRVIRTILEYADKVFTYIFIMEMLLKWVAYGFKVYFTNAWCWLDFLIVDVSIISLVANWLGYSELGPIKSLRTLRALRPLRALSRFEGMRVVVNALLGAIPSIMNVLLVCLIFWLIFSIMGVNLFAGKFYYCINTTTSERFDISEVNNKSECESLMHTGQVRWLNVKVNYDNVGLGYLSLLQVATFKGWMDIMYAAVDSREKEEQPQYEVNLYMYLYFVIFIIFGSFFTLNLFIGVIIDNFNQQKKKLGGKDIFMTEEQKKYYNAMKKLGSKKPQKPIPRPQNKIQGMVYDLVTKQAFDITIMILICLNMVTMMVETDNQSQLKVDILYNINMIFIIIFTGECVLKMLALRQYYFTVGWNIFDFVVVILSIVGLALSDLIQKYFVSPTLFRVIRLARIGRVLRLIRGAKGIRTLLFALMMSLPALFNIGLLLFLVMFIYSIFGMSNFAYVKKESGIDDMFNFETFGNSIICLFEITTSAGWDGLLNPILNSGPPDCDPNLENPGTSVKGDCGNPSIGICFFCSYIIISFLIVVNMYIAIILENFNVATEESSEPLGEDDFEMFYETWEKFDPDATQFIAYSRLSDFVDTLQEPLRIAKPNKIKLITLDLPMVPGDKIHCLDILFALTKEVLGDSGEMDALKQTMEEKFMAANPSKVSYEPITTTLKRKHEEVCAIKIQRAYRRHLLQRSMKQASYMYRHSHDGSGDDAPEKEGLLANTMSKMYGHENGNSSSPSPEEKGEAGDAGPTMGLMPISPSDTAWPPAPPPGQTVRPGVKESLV

Chain of hNav1.7 (Q15858 whole entry): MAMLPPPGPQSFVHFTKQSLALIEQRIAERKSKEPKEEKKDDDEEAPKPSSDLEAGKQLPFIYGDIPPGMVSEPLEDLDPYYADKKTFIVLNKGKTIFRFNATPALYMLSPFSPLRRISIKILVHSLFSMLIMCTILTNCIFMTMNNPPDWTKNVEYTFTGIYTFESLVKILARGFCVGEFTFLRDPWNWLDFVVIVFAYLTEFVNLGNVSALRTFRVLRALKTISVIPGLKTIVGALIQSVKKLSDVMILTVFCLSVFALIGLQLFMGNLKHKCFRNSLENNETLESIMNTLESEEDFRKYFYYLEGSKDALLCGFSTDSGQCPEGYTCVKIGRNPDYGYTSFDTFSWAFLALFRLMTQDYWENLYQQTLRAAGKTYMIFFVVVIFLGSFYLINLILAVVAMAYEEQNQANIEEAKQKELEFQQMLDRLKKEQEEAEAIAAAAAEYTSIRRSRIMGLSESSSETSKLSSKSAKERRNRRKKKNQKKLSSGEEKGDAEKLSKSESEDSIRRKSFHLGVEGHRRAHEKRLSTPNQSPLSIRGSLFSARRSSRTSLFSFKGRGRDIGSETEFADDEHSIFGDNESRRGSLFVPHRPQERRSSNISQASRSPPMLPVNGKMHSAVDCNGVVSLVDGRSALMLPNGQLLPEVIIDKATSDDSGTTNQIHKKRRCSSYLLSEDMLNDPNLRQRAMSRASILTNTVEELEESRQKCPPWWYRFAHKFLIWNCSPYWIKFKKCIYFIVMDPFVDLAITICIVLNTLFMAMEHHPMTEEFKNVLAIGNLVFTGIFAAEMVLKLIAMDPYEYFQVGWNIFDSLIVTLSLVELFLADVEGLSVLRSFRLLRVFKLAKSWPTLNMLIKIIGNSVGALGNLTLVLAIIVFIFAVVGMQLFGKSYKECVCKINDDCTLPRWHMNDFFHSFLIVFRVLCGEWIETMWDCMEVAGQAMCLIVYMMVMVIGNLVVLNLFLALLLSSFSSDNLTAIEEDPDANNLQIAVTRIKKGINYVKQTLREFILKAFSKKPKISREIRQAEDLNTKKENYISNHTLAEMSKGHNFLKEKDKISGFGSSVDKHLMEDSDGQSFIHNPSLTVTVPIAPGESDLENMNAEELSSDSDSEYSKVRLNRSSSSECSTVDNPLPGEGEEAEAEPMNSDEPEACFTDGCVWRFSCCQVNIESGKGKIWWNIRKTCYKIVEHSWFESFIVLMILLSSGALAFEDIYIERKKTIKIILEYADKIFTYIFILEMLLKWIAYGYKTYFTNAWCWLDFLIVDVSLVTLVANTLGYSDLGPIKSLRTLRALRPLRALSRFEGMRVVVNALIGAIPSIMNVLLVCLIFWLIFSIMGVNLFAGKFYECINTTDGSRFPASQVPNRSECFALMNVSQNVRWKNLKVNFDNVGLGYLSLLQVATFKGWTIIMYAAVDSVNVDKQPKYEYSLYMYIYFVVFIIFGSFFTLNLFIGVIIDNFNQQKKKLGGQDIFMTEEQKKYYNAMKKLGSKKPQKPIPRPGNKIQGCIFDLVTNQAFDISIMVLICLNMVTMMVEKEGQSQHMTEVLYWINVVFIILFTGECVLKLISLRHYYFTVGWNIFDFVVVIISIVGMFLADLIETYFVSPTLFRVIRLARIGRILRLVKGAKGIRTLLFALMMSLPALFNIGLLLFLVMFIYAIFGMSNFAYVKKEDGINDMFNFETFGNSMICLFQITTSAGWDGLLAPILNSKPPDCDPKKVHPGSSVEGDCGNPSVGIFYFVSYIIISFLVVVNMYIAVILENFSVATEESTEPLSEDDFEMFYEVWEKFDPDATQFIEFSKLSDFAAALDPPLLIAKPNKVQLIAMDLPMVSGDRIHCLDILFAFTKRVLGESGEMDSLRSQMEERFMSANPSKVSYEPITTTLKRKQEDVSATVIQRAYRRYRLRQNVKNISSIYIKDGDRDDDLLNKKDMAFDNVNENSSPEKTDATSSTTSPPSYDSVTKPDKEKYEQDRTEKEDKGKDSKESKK

With `C#CC[C@@H]1NC(=O)[C@@H]2CSSC[C@H](NC(=O)[C@H](Cc3ccc(O)cc3)NC(=O)[C@@H](N)CC#N)C(=O)N[C@@H](CCC(N)=O)C(=O)N[C@@H](CCCCN)C(=O)N[C@@H](Cc3c[nH]c4ccccc34)C(=O)N[C@@H](CCCC)C(=O)N[C@@H](Cc3c[nH]c4ccccc34)C(=O)N[C@@H]([C@@H](C)O)C(=O)N[C@H]3CSSC[C@H](NC(=O)[C@H](CCCNC(=N)N)NC(=O)[C@H](CC(C)C)NC(=O)CNC1=O)C(=O)N[C@@H](CCCCN)C(=O)N[C@@H](CC(C)C)C(=O)N[C@@H](Cc1c[nH]c4ccccc14)C(=O)N[C@H](C(=O)N[C@@H](CCCNC(=N)N)C(=O)N[C@@H](CCCCN)C(=O)N[C@@H](CCC(=O)O)C(=O)N[C@@H](Cc1c[nH]c4ccccc14)C(N)=O)CSSC[C@H](NC(=O)[C@H](C)NC(=O)[C@H](CCCNC(=N)N)NC(=O)[C@H](CCCCN)NC(=O)[C@H](CO)NC(=O)[C@H](CC(=O)O)NC3=O)C(=O)N2` [compound 452], at hNav1.7, the half-inhibitory concentration (IC50) was determined as 2.51 nM. In addition, at hNav1.4, the IC50 amounted to 64.6 nM and the Nav1.4/Nav1.7 is recorded as 26.
On to `C#CC[C@@H]1NC(=O)[C@H](CC(=O)O)NC(=O)[C@@H]2CSSC[C@@H]3NC(=O)[C@H](CCCNC(=N)N)NC(=O)[C@H](CC(C)C)NC(=O)CNC(=O)[C@H](CCC(=O)O)NC(=O)[C@H](CSSC[C@H](NC(=O)[C@H](Cc4ccc(O)cc4)NC(=O)[C@@H](N)CC#N)C(=O)N[C@@H](CCC(N)=O)C(=O)N[C@@H](CCCCN)C(=O)N[C@@H](Cc4c[nH]c5ccccc45)C(=O)N[C@@H](CCCC)C(=O)N[C@@H](Cc4c[nH]c5ccccc45)C(=O)N[C@@H]([C@@H](C)O)C(=O)N2)NC(=O)[C@H](CSSC[C@@H](C(=O)N[C@@H](CCCNC(=N)N)C(=O)N[C@@H](CCCCN)C(=O)N[C@@H](CCC(=O)O)C(=O)N[C@H](C(N)=O)[C@@H](C)CC)NC(=O)[C@H](Cc2c[nH]c4ccccc24)NC(=O)[C@H](CC(C)C)NC(=O)[C@H](CCCCN)NC3=O)NC(=O)[C@H](C)NC(=O)[C@H](CCCNC(=N)N)NC(=O)[C@H](CCCCN)NC1=O` [compound 520], for which the IC50 amounted to 0.193 nM on hNav1.7 and 517 nM at hNav1.4. Moreover, the Nav1.4/Nav1.7 on hNav1.4 stood at 2673.
Turning to `C#CC[C@@H]1NC(=O)[C@H](CO)NC(=O)[C@H](CC(=O)O)NC(=O)[C@@H]2CSSC[C@@H]3NC(=O)[C@H](CCCNC(=N)N)NC(=O)[C@H](CC(C)C)NC(=O)CNC(=O)[C@H](CCC(=O)O)NC(=O)[C@H](CSSC[C@H](NC(=O)[C@H](Cc4ccc(O)cc4)NC(=O)[C@@H](N)CC#N)C(=O)N[C@@H](CCC(N)=O)C(=O)N[C@@H](CCCCN)C(=O)N[C@@H](Cc4c[nH]c5ccccc45)C(=O)N[C@@H](CCCC)C(=O)N[C@@H](Cc4c[nH]c5ccccc45)C(=O)N[C@@H]([C@@H](C)O)C(=O)N2)NC(=O)[C@H](CSSC[C@@H](C(=O)N[C@@H](CCCNC(=N)N)C(=O)N[C@@H](CCCCN)C(=O)N[C@@H](CCC(=O)O)C(=O)N[C@H](C(N)=O)[C@@H](C)CC)NC(=O)[C@H](Cc2c[nH]c4ccccc24)NC(=O)[C@H](CC(C)C)NC(=O)[C@H](CCCCN)NC3=O)NC(=O)[C@H](C)NC(=O)[C@H](CCCNC(=N)N)NC1=O` [compound 521], the IC50 on hNav1.7 was 1.48 nM; on hNav1.4 it was 92.1 nM. The Nav1.4/Nav1.7 on hNav1.4 worked out at 62.
Regarding `C#CC[C@H](N)C(=O)N[C@@H](Cc1ccc(O)cc1)C(=O)N[C@H]1CSSC[C@@H]2NC(=O)[C@@H]3CSSC[C@@H](C(=O)N[C@@H](CCCNC(=N)N)C(=O)N[C@@H](CCCCN)C(=O)N[C@@H](CC(C)C)C(=O)N[C@H](C(N)=O)[C@@H](C)CC)NC(=O)[C@H](Cc4c[nH]c5ccccc45)NC(=O)[C@H](CC(C)C)NC(=O)[C@H](CCCCN)NC(=O)[C@H](CSSC[C@H](NC(=O)[C@H]([C@@H](C)O)NC(=O)[C@H](Cc4c[nH]c5ccccc45)NC(=O)[C@H](CCCC)NC(=O)[C@H](Cc4c[nH]c5ccccc45)NC(=O)[C@H](CCCCN)NC(=O)[C@H](CCC(N)=O)NC1=O)C(=O)N[C@@H](CC(=O)O)C(=O)N[C@@H](CO)C(=O)N[C@@H](CCCCN)C(=O)N[C@@H](CCCNC(=N)N)C(=O)N[C@@H](C)C(=O)N3)NC(=O)[C@H](CCCNC(=N)N)NC(=O)[C@H](CC(C)C)NC(=O)CNC(=O)[C@H](CCC(=O)O)NC2=O` [compound 655], the IC50 at hNav1.7 came to 2.91 nM. Moreover, on hNav1.4, the IC50 amounted to 25.9 nM and the Nav1.4/Nav1.7 amounted to 9.
The matching figures for `C#CC[C@H](N)C(=O)N[C@@H](Cc1ccc(O)cc1)C(=O)N[C@H]1CSSC[C@@H]2NC(=O)[C@@H]3CSSC[C@@H](C(=O)N[C@@H](CCCNC(=N)N)C(=O)N[C@@H](CCCCN)C(=O)N4CCC[C@H]4C(=O)N[C@H](C(N)=O)[C@@H](C)CC)NC(=O)[C@H](Cc4c[nH]c5ccccc45)NC(=O)[C@H](CC(C)C)NC(=O)[C@H](CCCCN)NC(=O)[C@H](CSSC[C@H](NC(=O)[C@H]([C@@H](C)O)NC(=O)[C@H](Cc4c[nH]c5ccccc45)NC(=O)[C@H](CCCC)NC(=O)[C@H](Cc4c[nH]c5ccccc45)NC(=O)[C@H](CCCCN)NC(=O)[C@H](CCC(N)=O)NC1=O)C(=O)N[C@@H](CC(=O)O)C(=O)N[C@@H](CO)C(=O)N[C@@H](CCCCN)C(=O)N[C@@H](CCCNC(=N)N)C(=O)N[C@@H](C)C(=O)N3)NC(=O)[C@H](CCCNC(=N)N)NC(=O)[C@H](CC(C)C)NC(=O)CNC(=O)[C@H](CCC(=O)O)NC2=O` [compound 657]: 1.97 nM, 206 nM and 105.
The matching figures for `C#CC[C@H](N)C(=O)N[C@@H](Cc1ccc(O)cc1)C(=O)N[C@H]1CSSC[C@@H]2NC(=O)[C@@H]3CSSC[C@@H](C(=O)N[C@@H](CCCNC(=N)N)C(=O)N[C@@H](CCCCN)C(=O)N[C@@H](CCC(=O)O)C(=O)N[C@H](C(N)=O)[C@@H](C)CC)NC(=O)[C@H](Cc4c[nH]c5ccccc45)NC(=O)[C@H](CC(C)C)NC(=O)[C@H](CCCCN)NC(=O)[C@H](CSSC[C@H](NC(=O)[C@H]([C@@H](C)O)NC(=O)[C@H](Cc4c[nH]c5ccccc45)NC(=O)[C@H](CCCC)NC(=O)[C@H](Cc4c[nH]c5ccccc45)NC(=O)[C@H](CCCCN)NC(=O)[C@H](CCC(N)=O)NC1=O)C(=O)N[C@@H](CC(=O)O)C(=O)N[C@@H](CO)C(=O)N[C@@H](CCC(=O)O)C(=O)N[C@@H](CCCNC(=N)N)C(=O)N[C@@H](C)C(=O)N3)NC(=O)[C@H](CCCNC(=N)N)NC(=O)[C@H](CC(C)C)NC(=O)CNC(=O)[C@H](CCCCN)NC2=O` [compound 728]: 8.76 nM, 405 nM and 46.
Turning to `C#CC[C@H](N)C(=O)N[C@@H](Cc1ccc(O)cc1)C(=O)N[C@H]1CSSC[C@@H]2NC(=O)[C@@H]3CSSC[C@@H](C(=O)N[C@@H](CCCNC(=N)N)C(=O)N[C@@H](CCCCN)C(=O)N[C@H](C(=O)N[C@H](C(N)=O)[C@@H](C)CC)[C@@H](C)CC)NC(=O)[C@H](Cc4c[nH]c5ccccc45)NC(=O)[C@H](CC(C)C)NC(=O)[C@H](CCCCN)NC(=O)[C@H](CSSC[C@H](NC(=O)[C@H]([C@@H](C)O)NC(=O)[C@H](Cc4c[nH]c5ccccc45)NC(=O)[C@H](CCCC)NC(=O)[C@H](Cc4c[nH]c5ccccc45)NC(=O)[C@H](CCCCN)NC(=O)[C@H](CCC(N)=O)NC1=O)C(=O)N[C@@H](CC(=O)O)C(=O)N[C@@H](CO)C(=O)N[C@@H](CCC(=O)O)C(=O)N[C@@H](CCCNC(=N)N)C(=O)N[C@@H](C)C(=O)N3)NC(=O)[C@H](CCCNC(=N)N)NC(=O)[C@H](CC(C)C)NC(=O)CNC(=O)[C@H](CCCCN)NC2=O` [compound 729], the IC50 on hNav1.7 amounted to 1.87 nM. For the same compound, at hNav1.4, the IC50 stood at 7.6 nM and the Nav1.4/Nav1.7 turned out to be 4.
The matching figures for `C#CC[C@H](N)C(=O)N[C@@H](Cc1ccc(O)cc1)C(=O)N[C@H]1CSSC[C@@H]2NC(=O)[C@@H]3CSSC[C@@H](C(=O)N[C@@H](CCCNC(=N)N)C(=O)N[C@@H](CCCCN)C(=O)N[C@H](C(=O)N[C@H](C(N)=O)[C@@H](C)CC)[C@@H](C)CC)NC(=O)[C@H](Cc4c[nH]c5ccccc45)NC(=O)[C@H](CC(C)C)NC(=O)[C@H](CCCCN)NC(=O)[C@H](CSSC[C@H](NC(=O)[C@H]([C@@H](C)O)NC(=O)[C@H](Cc4c[nH]c5ccccc45)NC(=O)[C@H](CCCC)NC(=O)[C@H](Cc4c[nH]c5ccccc45)NC(=O)[C@H](CCCCN)NC(=O)[C@H](CCC(N)=O)NC1=O)C(=O)N[C@@H](CC(=O)O)C(=O)N[C@@H](CO)C(=O)N[C@@H](CCC(=O)O)C(=O)N[C@@H](CCCNC(=N)N)C(=O)N[C@@H](C)C(=O)N3)NC(=O)[C@H](CCCNC(=N)N)NC(=O)[C@H](CC(C)C)NC(=O)CNC(=O)[C@H](CCC(=O)O)NC2=O` [compound 730]: 1.19 nM, 37.2 nM and 31.
The matching figures for `C#CC[C@H](N)C(=O)N[C@@H](CCC(=O)O)C(=O)N[C@H]1CSSC[C@@H]2NC(=O)[C@@H]3CSSC[C@@H](C(=O)N[C@@H](CCCNC(=N)N)C(=O)N[C@@H](CCCCN)C(=O)N[C@@H](CCC(=O)O)C(=O)N[C@H](C(N)=O)[C@@H](C)CC)NC(=O)[C@H](Cc4c[nH]c5ccccc45)NC(=O)[C@H](CC(C)C)NC(=O)[C@H](CCCCN)NC(=O)[C@H](CSSC[C@H](NC(=O)[C@H]([C@@H](C)O)NC(=O)[C@H](Cc4c[nH]c5ccccc45)NC(=O)[C@H](CCCC)NC(=O)[C@H](Cc4c[nH]c5ccccc45)NC(=O)[C@H](CCCCN)NC(=O)[C@H](CCC(N)=O)NC1=O)C(=O)N[C@@H](CC(=O)O)C(=O)N[C@@H](CCC(=O)O)C(=O)N[C@@H](CCCCN)C(=O)N[C@@H](CCCNC(=N)N)C(=O)N[C@@H](CCC(=O)O)C(=O)N3)NC(=O)[C@H](CCCNC(=N)N)NC(=O)[C@H](CC(C)C)NC(=O)CNC(=O)[C@H](CCC(=O)O)NC2=O` [compound 751]: 10.2 nM, 1920 nM and 189.
